From ChEMBL document CHEMBL1130673, “Hydroindenic-guanylhydrazones. Synthesis and evaluation as inotropic agents” (1998) come the findings set out here.

The species named for experiment [1] is Cavia porcellus. The experiment is described as follows: Compound was measured for inotropic activity against isolated guinea pig atria at concentration 3 x 10e-4; Negative inotropic activity. The experiment is classed as functional.
For experiment [2], the species on record is Cavia porcellus. The experiment is described as follows: Compound was measured for inotropic activity against isolated guinea pig atria at concentration 3 x 10e-4. The experiment is classed as functional.

Regarding `C[C@]12CCC3(C[C@@]1(O)CCC2/C=N/N=C(N)N)OCCO3` (stereo not given in full), the Activity result in the experiment filed under Cavia porcellus [1] was “Negative inotropic activity”.

Turning to `CC(=O)OC[C@H]1CC[C@]2(O)CC3(CC[C@]12C)SCCCS3`, the Reduction in the experiment listed under Cavia porcellus [2] turned out to be 56%.

Consider `C[C@]12CCC(OC(c3ccccc3)(c3ccccc3)c3ccccc3)C[C@@]1(O)CC[C@@H]2CO` (stereo not given in full), for which the Activity entry in the experiment listed under Cavia porcellus [1] was “Negative inotropic activity”.

`COC(=O)/C=C/[C@H]1CC[C@]2(O)CC3(CC[C@]12C)SCCCS3` came in with a Reduction in the experiment filed under Cavia porcellus [2] of 85%.

Consider `C[C@]12CC/C(=N\N=C(N)N)C[C@@]1(O)CCC2/C=N/N=C(N)N` (stereo not given in full), for which the Activity result in the experiment listed under Cavia porcellus [1] is “Negative inotropic activity”.
